# Data: US20240415914A1, “Water Dispersible Cannabinoid Compositions” (priority 2021, published 2024)
# Assay: Stability of cannabinoid and Vitamin E components of Beverage 1 (AB White) stored at 8° C. and 21-25° C., LCMSMS over 570 days
# Assay type: physicochemical
# Conditions: for Stability in AB White, 8° C. (content by LCMSMS): beverage stored at 8° C.; for Stability in AB White, 21-25° C. (content by LCMSMS): beverage stored at 21-25° C.
# Experimental: The LCMSMS was calibrated for 0-1000 ng/ml cannabinoids with the same resin material used in the preparation of the concentrates. At each time period, 100 ml of beverage was diluted with 10 ml of methanol and injected into the LCMSMS for analysis.
structure (smiles),measurement,setting,value
"C=C(C)[C@@H]1CCC(C)=C[C@H]1c1c(O)cc(CCC)cc1O [CBDV, cannabidivarin]","Stability in AB White, 8° C. (content by LCMSMS)",day 0,0.150 µg/mL
same,"Stability in AB White, 8° C. (content by LCMSMS)",day 1,0.146 µg/mL
same,"Stability in AB White, 8° C. (content by LCMSMS)",day 2,0.147 µg/mL
same,"Stability in AB White, 8° C. (content by LCMSMS)",day 3,0.146 µg/mL
same,"Stability in AB White, 8° C. (content by LCMSMS)",day 5,0.147 µg/mL
same,"Stability in AB White, 8° C. (content by LCMSMS)",day 8,0.148 µg/mL
same,"Stability in AB White, 8° C. (content by LCMSMS)",day 9,0.146 µg/mL
same,"Stability in AB White, 8° C. (content by LCMSMS)",day 10,0.148 µg/mL
same,"Stability in AB White, 8° C. (content by LCMSMS)",day 11,0.150 µg/mL
same,"Stability in AB White, 8° C. (content by LCMSMS)",day 12,0.150 µg/mL
same,"Stability in AB White, 8° C. (content by LCMSMS)",day 15,0.150 µg/mL
same,"Stability in AB White, 8° C. (content by LCMSMS)",day 16,0.148 µg/mL
same,"Stability in AB White, 8° C. (content by LCMSMS)",day 17,0.146 µg/mL
same,"Stability in AB White, 8° C. (content by LCMSMS)",day 18,0.146 µg/mL
same,"Stability in AB White, 8° C. (content by LCMSMS)",day 19,0.149 µg/mL
same,"Stability in AB White, 8° C. (content by LCMSMS)",day 22,0.149 µg/mL
same,"Stability in AB White, 8° C. (content by LCMSMS)",day 23,0.149 µg/mL
same,"Stability in AB White, 8° C. (content by LCMSMS)",day 24,0.147 µg/mL
same,"Stability in AB White, 8° C. (content by LCMSMS)",day 25,0.149 µg/mL
same,"Stability in AB White, 8° C. (content by LCMSMS)",day 26,0.152 µg/mL
same,"Stability in AB White, 8° C. (content by LCMSMS)",day 29,0.151 µg/mL
same,"Stability in AB White, 8° C. (content by LCMSMS)",day 30,0.148 µg/mL
same,"Stability in AB White, 8° C. (content by LCMSMS)",day 60,0.143 µg/mL
same,"Stability in AB White, 8° C. (content by LCMSMS)",day 90,0.146 µg/mL
same,"Stability in AB White, 8° C. (content by LCMSMS)",day 120,0.144 µg/mL
same,"Stability in AB White, 8° C. (content by LCMSMS)",day 150,0.150 µg/mL
same,"Stability in AB White, 8° C. (content by LCMSMS)",day 180,0.150 µg/mL
same,"Stability in AB White, 8° C. (content by LCMSMS)",day 210,0.147 µg/mL
same,"Stability in AB White, 8° C. (content by LCMSMS)",day 240,0.145 µg/mL
same,"Stability in AB White, 8° C. (content by LCMSMS)",day 270,0.143 µg/mL
same,"Stability in AB White, 8° C. (content by LCMSMS)",day 300,0.143 µg/mL
same,"Stability in AB White, 8° C. (content by LCMSMS)",day 330,0.146 µg/mL
same,"Stability in AB White, 8° C. (content by LCMSMS)",day 360,0.145 µg/mL
same,"Stability in AB White, 8° C. (content by LCMSMS)",day 390,0.143 µg/mL
same,"Stability in AB White, 8° C. (content by LCMSMS)",day 420,0.144 µg/mL
same,"Stability in AB White, 8° C. (content by LCMSMS)",day 450,0.145 µg/mL
same,"Stability in AB White, 8° C. (content by LCMSMS)",day 480,0.143 µg/mL
same,"Stability in AB White, 8° C. (content by LCMSMS)",day 510,0.138 µg/mL
same,"Stability in AB White, 8° C. (content by LCMSMS)",day 540,0.139 µg/mL
same,"Stability in AB White, 8° C. (content by LCMSMS)",day 570,0.138 µg/mL
same,"Stability in AB White, 21-25° C. (content by LCMSMS)",day 0,0.150 µg/mL
same,"Stability in AB White, 21-25° C. (content by LCMSMS)",day 1,0.149 µg/mL
same,"Stability in AB White, 21-25° C. (content by LCMSMS)",day 2,0.148 µg/mL
same,"Stability in AB White, 21-25° C. (content by LCMSMS)",day 3,0.149 µg/mL
same,"Stability in AB White, 21-25° C. (content by LCMSMS)",day 5,0.144 µg/mL
same,"Stability in AB White, 21-25° C. (content by LCMSMS)",day 8,0.145 µg/mL
same,"Stability in AB White, 21-25° C. (content by LCMSMS)",day 9,0.148 µg/mL
same,"Stability in AB White, 21-25° C. (content by LCMSMS)",day 10,0.147 µg/mL
same,"Stability in AB White, 21-25° C. (content by LCMSMS)",day 11,0.150 µg/mL
same,"Stability in AB White, 21-25° C. (content by LCMSMS)",day 12,0.152 µg/mL
same,"Stability in AB White, 21-25° C. (content by LCMSMS)",day 15,0.151 µg/mL
same,"Stability in AB White, 21-25° C. (content by LCMSMS)",day 16,0.145 µg/mL
same,"Stability in AB White, 21-25° C. (content by LCMSMS)",day 17,0.150 µg/mL
same,"Stability in AB White, 21-25° C. (content by LCMSMS)",day 18,0.151 µg/mL
same,"Stability in AB White, 21-25° C. (content by LCMSMS)",day 19,0.148 µg/mL
same,"Stability in AB White, 21-25° C. (content by LCMSMS)",day 22,0.148 µg/mL
same,"Stability in AB White, 21-25° C. (content by LCMSMS)",day 23,0.148 µg/mL
same,"Stability in AB White, 21-25° C. (content by LCMSMS)",day 24,0.145 µg/mL
same,"Stability in AB White, 21-25° C. (content by LCMSMS)",day 25,0.145 µg/mL
same,"Stability in AB White, 21-25° C. (content by LCMSMS)",day 26,0.149 µg/mL
same,"Stability in AB White, 21-25° C. (content by LCMSMS)",day 29,0.147 µg/mL
same,"Stability in AB White, 21-25° C. (content by LCMSMS)",day 30,0.151 µg/mL
same,"Stability in AB White, 21-25° C. (content by LCMSMS)",day 60,0.149 µg/mL
same,"Stability in AB White, 21-25° C. (content by LCMSMS)",day 90,0.143 µg/mL
same,"Stability in AB White, 21-25° C. (content by LCMSMS)",day 120,0.141 µg/mL
same,"Stability in AB White, 21-25° C. (content by LCMSMS)",day 150,0.146 µg/mL
same,"Stability in AB White, 21-25° C. (content by LCMSMS)",day 180,0.141 µg/mL
same,"Stability in AB White, 21-25° C. (content by LCMSMS)",day 210,0.142 µg/mL
same,"Stability in AB White, 21-25° C. (content by LCMSMS)",day 240,0.145 µg/mL
same,"Stability in AB White, 21-25° C. (content by LCMSMS)",day 270,0.148 µg/mL
same,"Stability in AB White, 21-25° C. (content by LCMSMS)",day 300,0.142 µg/mL
same,"Stability in AB White, 21-25° C. (content by LCMSMS)",day 330,0.144 µg/mL
same,"Stability in AB White, 21-25° C. (content by LCMSMS)",day 360,0.146 µg/mL
same,"Stability in AB White, 21-25° C. (content by LCMSMS)",day 390,0.146 µg/mL
same,"Stability in AB White, 21-25° C. (content by LCMSMS)",day 420,0.143 µg/mL
same,"Stability in AB White, 21-25° C. (content by LCMSMS)",day 450,0.144 µg/mL
same,"Stability in AB White, 21-25° C. (content by LCMSMS)",day 480,0.143 µg/mL
same,"Stability in AB White, 21-25° C. (content by LCMSMS)",day 510,0.139 µg/mL
same,"Stability in AB White, 21-25° C. (content by LCMSMS)",day 540,0.140 µg/mL
same,"Stability in AB White, 21-25° C. (content by LCMSMS)",day 570,0.138 µg/mL
